Format in all cases: cell-based
For one assay, the system named is KERtr cells. Put plainly: Keratinocyte proliferation assay. The note with it: Homo sapiens, 72 h, BrdU incorporation, several values separated by /, read-out: Kera. Prolif. IC50. On the procedure:
5. The Keratinocyte Proliferation Assay
This Assay is indicative for the treatment of psoriasis.
(5) The Keratinocyte Proliferation Assay:
KERtr cells (Human skin keratinocyte transformed with a retrovirus vector, obtained from ATCC) were plated in 96-well flat-bottomed plates (3000 cells/well) in 100 μl keratinocyte serum free medium supplemented with bovine pituitary extract in the absence of EGF (Life Technologies, Rockville, Md.) and incubated at 37° C. for two days. The cells were treated with various concentrations of VDR ligands (ten-fold serial dilution from 10,000 nM to 0.1 nM in triplicate), dissolved in 100 μl keratinocyte serum free medium supplemented with bovine pituitary extract in the absence of EGF and incubated at 37° C. for 72 hr. […] Potency values (IC50) values were determined as the concentration (nM) of compound that elicited a half-maximal response.
On the technique in general: Incorporation of labelled thymidine or its analogues reports DNA synthesis.

For the next assay, the system named is rat osteocalcin promoter. The experiment in a line: OCN (osteocalcin) promoter assay. To be noted: RG-15 (ROS 17/2.8) cells. On the procedure: 3. The OCN (Osteocalcin) Promoter Assay
The OCN Promoter Assay is an indicator and marker for osteoporosis. […] Preferred assay results are less than 50 nM.
(3) Materials and Method for The OCN Promoter Assay:
The activation of osteocalcin by VDR ligands was evaluated in a rat osteoblast-like cell line RG-15 (ROS 17/2.8) stably expressing rat osteocalcin promoter fused with luciferase reporter gene. […] Confluent RG-15 cells maintained in DMEM/F-12 medium (3:1) containing 5% FBS, 300 μg/ml G418 and at 37° C. under 5% CO2/95% air atmosphere were trypsinized (0.25% trypsin) and plated into white opaque 96-well cell culture plates (25000 cells/well). After 24 hr, cells (in DMEM/F-12 medium+2% FBS) were treated with various concentrations of compounds, dissolved in DMSO. The final DMSO concentration remained at 0.01% (v/v). After 48 hr treatment, the medium was removed, cells were lysed with 50 μl of lysis buffer (From Luciferase reporter assay system, Roche Diagnostics, Indianapolis, Ind.) and assayed for luciferase activity using the Luciferase Reporter Gene Assay kit from Boehringer Mannheim as per manufacturer's specifications.

A further assay concerns the target T1, RXR-VDR heterodimer (Homo sapiens, UniProt P11473).
T1 construct: Add the Gal4-RXR-DEF and VP16-VDR-LBD; expressed in transfected cells; host or cells: SaOS-2 cells
T1 sequence (P11473 127-423 limits assumed): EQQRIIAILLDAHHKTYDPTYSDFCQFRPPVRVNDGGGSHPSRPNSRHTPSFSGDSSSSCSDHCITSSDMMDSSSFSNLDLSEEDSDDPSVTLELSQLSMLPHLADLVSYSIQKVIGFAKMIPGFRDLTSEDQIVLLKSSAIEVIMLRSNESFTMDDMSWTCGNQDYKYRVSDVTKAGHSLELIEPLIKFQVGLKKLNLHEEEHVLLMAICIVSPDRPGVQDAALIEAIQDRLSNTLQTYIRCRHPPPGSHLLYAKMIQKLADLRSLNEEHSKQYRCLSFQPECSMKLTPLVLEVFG
T1 sequence (P19793 201-462 partner limits assumed): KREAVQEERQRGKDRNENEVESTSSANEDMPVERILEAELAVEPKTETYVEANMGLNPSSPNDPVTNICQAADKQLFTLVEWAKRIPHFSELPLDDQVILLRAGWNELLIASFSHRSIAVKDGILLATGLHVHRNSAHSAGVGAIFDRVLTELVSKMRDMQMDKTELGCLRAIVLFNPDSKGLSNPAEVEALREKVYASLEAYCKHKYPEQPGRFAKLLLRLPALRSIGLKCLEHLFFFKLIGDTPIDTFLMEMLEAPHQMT
Put plainly: RXR-VDR heterodimerization assay (SaOS-2 cells). To be noted: Gal4-RXR-DEF/VP16-VDR-LBD luciferase reporter, several values in a cell separated by /. On the procedure: 1. The RXR-VDR Heterodimer Assay:
This assay provides the VDR activity of a test compound.
(1) Materials and Method for RXR-VDR Heterodimerization Assay:
Luciferase Assay Reagent: • Use Steady-Glo Luciferase Reagent from Promega (Cat #E2550) Consists of: a. E2533 Assay Substrate, lyopholized product and b. E2543 Assay Buffer. • Thaw at room temperature • Store Cell Harvesting Aspirate media from culture flask, rinse cells with HBSS and aspirate. Add trypsin and incubate. When cells appear detached, resuspend cells in growth media. Transfer into a new flask with fresh growth media for passaging the cells. Plate well plates and two extra plates A. Cell Count Mix the cell suspension using pipette Use Hematocytometer to count the cells Load cell suspension onto the hemocytometer chamber Count cells. […] In sterile flask add cell suspension to plating media. Mix. Add cells/well. Place the cells in the incubator. Cells should be about 75% confluent prior to transfection. DAY 2: Transfection Step 1: DNA and Media Add plain DMEM media to tubes for mixing the DNA Add the Reporter gene pFR-LUC Add the Gal4-RXR-DEF and VP16-VDR-LBD Step 2: FuGENE and Media Prepare plain DMEM media in a ubes for mixing FuGENE Add FuGENE 6 Transfection Reagent Incubate Step 3: FuGENE, DNA and Media Complex Add FuGENE Media complex from step 2 to DNA Media complex from step 1 Incubate Step 4: FuGENE, DNA and Media Complex to-well plate Add FuGENE-DNA-Media complex from step 3 to each plate Incubate. […] Day 4: Luciferase Assay Read the plates after drug treatment Remove part of media from all the wells and leave remainder Add Steady-Glo Luciferase Reagent mixture/wells Incubate Count each well using a Luminescence counter, Top Count NXT by Packard
Set a delay between plates to reduce the background.
(In general: A reporter such as luciferase makes a cellular process visible.)

[1] abbreviates: Rattus norvegicus, 48 h, 48 hr treatment, luciferase, several values separated by /.
Setting [2] is: 48 hr treatment, luciferase, several values separated by /.

Among the data in patent US7579488B2 (Eli Lilly and Company, priority 2003, dated 2009) are IC50 and EC50 values, retold here.

SMILES strings stand for the structures. Values joined by “and” are separate entries in the source; they are usually repeats but may differ in a detail not shown here. Equal values may be shown once.

One may read the IC50 as the concentration that gives 50% inhibition. The term EC50 denotes the concentration needed to bring the measured effect to its halfway point. `CCC(CC)(c1ccc(OCC(=O)C(C)(C)C)c(C)c1)c1cc2cc(C(=O)N(C)CC(=O)O)ccc2o1`: the IC50 with KERtr cells worked out at 10 nM. The 50% effective concentration (EC50) with rat osteocalcin promoter (setting [1]) was found to be 7 nM; on RXR-VDR heterodimer, 9 nM.
With `Cc1cc(C2(c3ccc(OCC(=O)C(C)(C)C)c(C)c3)CCCCC2)ccc1OCC(=O)C(C)(C)C` [CC, 1-(4-{1-[4-(3,3-Dimethyl-2-oxo-butoxy)-3-methyl-phenyl]-cyclohexyl}-2-methyl-phenoxy)-3,3-dimethyl-butan-2-one, reference compound], the half-maximal effective concentration (EC50) with rat osteocalcin promoter (Rattus norvegicus, comparison compounds) turned out to be 2680 nM.
As to `CCC(CC)(c1ccc(OCC2(C(C)(C)C)OCCO2)c(C)c1)c1cc2cc(C(=O)O)ccc2o1` [Ex 15, 2-{1-[4-(2-tert-Butyl-[1,3]dioxolan-2-ylmethoxy)-3-methyl-phenyl]-1-ethyl-propyl}-benzofuran-5-carboxylic acid], the concentration giving a half-maximal response (EC50) with rat osteocalcin promoter (setting [1]) was 634 nM; on RXR-VDR heterodimer, 1350 nM and 627 nM.
Regarding `CCC(CC)(c1ccc(OCC2(C(C)(C)C)OCCO2)c(C)c1)c1cc2cc(C(=O)NCC(=O)O)ccc2o1` [Ex 16, [(2-{1-[4-(2-tert-butyl-[1,3]dioxolan-2-ylmethoxy)-3-methyl-phenyl]-1-ethyl-propyl}-benzofuran-5-carbonyl)-amino]-acetic acid], the EC50 in the assay with rat osteocalcin promoter (setting [2]) is 44 nM; in the assay with rat osteocalcin promoter (setting [1]), 27 nM; at RXR-VDR heterodimer, 570 nM and 71 nM.
Regarding `CCC(CC)(c1ccc(OCC(O)C(C)(C)C)c(C)c1)c1cc(C)c2oc(C(=O)O)cc2c1` (stereo not drawn) [Ex 22, 5-{1-Ethyl-1-[4-(2-hydroxy-3,3-dimethyl-butoxy)-3-methyl-phenyl]-propyl}-7-methyl-benzofuran-2-carboxylic acid], in the assay with KERtr cells, the IC50 was determined as 109 nM. Moreover, the figures for the EC50 with rat osteocalcin promoter (setting [1]) and at RXR-VDR heterodimer were 1 nM and 27 nM, respectively.
`CCC(CC)(c1ccc(OCC2(C(C)(C)C)OCCO2)c(C)c1)c1cc(C)c2oc(C(=O)O)cc2c1` [Ex 23, 5-{1-[4-(2-tert-Butyl-[1,3]dioxolan-2-ylmethoxy)-3-methyl-phenyl]-1-ethylpropyl}-7-methyl-benzofuran-2-carboxylic acid]: the 50% effective concentration (EC50) with rat osteocalcin promoter (setting [2]) is 88 nM; in the assay on rat osteocalcin promoter (setting [1]) it was 127 nM; at RXR-VDR heterodimer it was 660 nM and 320 nM.
For `CCC(CC)(c1ccc(OCC2(C(C)(C)C)OCCO2)c(C)c1)c1cc(C)c2oc(C(=O)NCC(=O)O)cc2c1` [Ex 24, [(5-{1-[4-(2-tert-butyl-[1,3]dioxolan-2-ylmethoxy)-3-methyl-phenyl]-1-ethyl-propyl}-7-methyl-benzofuran-2-carbonyl)-amino]-acetic acid], the concentration giving a half-maximal response (EC50) in the assay on rat osteocalcin promoter (setting [1]) is 431 nM; on RXR-VDR heterodimer it was 851 nM.
In the case of `CCC(CC)(c1ccc(OCC2(C(C)(C)C)OCCO2)c(C)c1)c1cc(C)c2oc(C(=O)N(C)C)cc2c1` [Ex 25, 5-{1-[4-(2-tert-Butyl-[1,3]dioxolan-2-ylmethoxy)-3-methyl-phenyl]-1-ethyl-propyl}-7-methyl-benzofuran-2-carboxylic acid dimethylamide], in the assay on KERtr cells, the half-maximal inhibitory concentration (IC50) was determined as 1000 nM. Moreover, the 50% effective concentration (EC50) was found to be 1000 nM in the assay with rat osteocalcin promoter (setting [1]) and 67 nM on RXR-VDR heterodimer.
Turning to `CCC(CC)(c1ccc(OCC(=O)C(C)(C)C)c(C)c1)c1cc(C)c2oc(C(=O)N(C)C)cc2c1` [Ex 26, 5-{1-[4-(3,3-Dimethyl-2-oxo-butoxy)-3-methyl-phenyl]-1-ethyl-propyl}-7-methyl-benzofuran-2-carboxylic acid dimethylamide], the EC50 in the assay with rat osteocalcin promoter (setting [1]) was 17 nM.
On to `CCC(CC)(c1ccc(OCC(O)C(C)(C)C)c(C)c1)c1cc(C)c2oc(C(=O)N(C)C)cc2c1` (stereo not drawn) [Ex 27, 5-{1-Ethyl-1-[4-(2-hydroxy-3,3-dimethyl-butoxy)-3-methyl-phenyl]-propyl}-7-methyl-benzofuran-2-carboxylic acid dimethylamide], for which, in the assay with KERtr cells, the IC50 was above 1000 nM. Further, the EC50 was 17 nM in the assay on rat osteocalcin promoter (setting [2]); 9 nM in the assay on rat osteocalcin promoter (setting [1]); 154 nM and 51 nM on RXR-VDR heterodimer.
As for `CCC(CC)(c1ccc(OCC(O)C(C)(C)C)c(C)c1)c1cc(C)c2oc(C(=O)NCC(=O)O)cc2c1` (stereo not drawn) [Ex 29, [(5-{1-Ethyl-1-[4-(2-hydroxy-3,3-dimethyl-butoxy)-3-methyl-phenyl]-propyl}-7-methyl-benzofuran-2-carbonyl)-amino]-acetic acid], the IC50 in the assay with KERtr cells was determined as 414 nM. For the same compound, the results for the EC50 in the assay on rat osteocalcin promoter (setting [1]) and on RXR-VDR heterodimer were 3 nM and 71 nM, respectively.
Consider `CCC(CC)(c1ccc(OCC(=O)C(C)(C)C)c(C)c1)c1ccc2oc(C(=O)N(C)C)c(C)c2c1` [Ex 36, 5-{1-[4-(3,3-dimethyl-2-oxo-butoxy)-3-methyl-phenyl]-1-ethyl-propyl}-3-methyl-benzofuran-2-carboxylic acid dimethylamide], for which the EC50 in the assay with rat osteocalcin promoter (setting [1]) stood at 210 nM; on RXR-VDR heterodimer, 536 nM.
Take `CCC(CC)(c1ccc(OCC(=O)C(C)(C)C)c(C)c1)c1cc2ccc(OS(C)(=O)=O)cc2o1` [Ex 40, methanesulfonic acid 2-{1-[4-(3,3-dimethyl-2-oxo-butoxy)-3-methyl-phenyl]-1-ethyl-propyl}-benzofuran-6-yl ester]: it took 80 nM to reach a half-maximal effect on RXR-VDR heterodimer (EC50).
As to `CCC(CC)(c1ccc(OCC(=O)C(C)(C)C)c(C)c1)c1cc2cc(C(=O)OC)ccc2o1` [Ex. 1], in the assay on KERtr cells, the half-maximal inhibitory concentration (IC50) amounted to 71 nM. Moreover, the concentration for a half-maximal effect (EC50) in the assay with rat osteocalcin promoter (setting [1]) was 1 nM.
Consider `CCC(CC)(c1ccc(OCC(O)C(C)(C)C)c(C)c1)c1cc2cc(C(=O)N(C)C)ccc2o1` (stereo not drawn) [Ex. 6, 2-{1-Ethyl-1-[4-(2-hydroxy-3,3-dimethyl-butoxy)-3-methyl-phenyl]-propyl}-benzofuran-5-carboxylic acid dimethylamide], for which the concentration for a half-maximal effect (EC50) in the assay with rat osteocalcin promoter (setting [2]) was 47 nM; in the assay on rat osteocalcin promoter (setting [1]), 68 nM; on RXR-VDR heterodimer, 410 nM and 79 nM.
With `CCC(CC)(c1ccc(OCC(=O)C(C)(C)C)c(C)c1)c1cc2cc(C(=O)NC(C)(C)C(=O)O)ccc2o1` [Ex. 10, 2-[(2-{1-[4-(3,3-Dimethyl-2-oxo-butoxy)-3-methyl-phenyl]-1-ethyl-propyl}-benzofuran-5-carbonyl)-amino]-2-methyl-propionic acid], the IC50 in the assay on KERtr cells was determined as 215 nM. Besides, the half-maximal effective concentration (EC50) in the assay on rat osteocalcin promoter (setting [1]) turned out to be 275 nM; on RXR-VDR heterodimer it was 235 nM.
